Data: US20200253870A1, “A LDV LIPOSOMAL FORMULATION OF PHOTO SYSTEM-I FOR TREATMENT OF CANCER” (priority 2016, published 2020)
Converted amounts (≈) assume the structure as drawn.

Legend:
B16F10 cells [1] = test: MTT cell viability assay in B16F10 cells; format: cell-based; conditions: Mus musculus, B16-F10, B16F10, 15.62 μg/mL, Table 5 comparison, 24 h
Description: B16F10 and A375 cells were treated with the LDV liposomal formulation of PSI and cellular viability was checked using MTT assay. It is a colorimetric assay where MTT (Methyl thiazolyl diphenyl-tetrazolium bromide), a yellow tetrazole compound, is reduced to purple formazan by cellular reductase enzymes of live cells. Dead cells cannot do this type of reduction and are not able to develop the purple colour. […] The live cells are called as viable cells and it is denoted as % viability in the Y-axis. On the X-axis four different concentrations of the said formulation was plotted. The absorbance at 550 nm was measured and the % viability was calculated.
(§1) Cells were seeded at a density of 10000 cells per well in 96-well plate before 24 hours of treatment. Cells were treated with different concentrations of LDV liposomal formulation of PSI. After that cells were incubated for 48 hours in complete media. MTT solution (5 mg/mL) was prepared in PBS. 50 μL of MTT solution was added into each well and incubated at 37° C. for 4 hours. Purple colored formazan was dissolved in 1:1 (v/v) DMSO/MeOH and absorbances of the wells were measured at 550 nm by micro-plate ELISA reader. The % viability from this absorbance values was calculated.

A375 cells [2] = test: cells; format: cell-based, human; conditions: A-375, MTT
Description: B16F10 and A375 cells were treated with the LDV liposomal formulation of PSI and cellular viability was checked using MTT assay. […] Therefore an idea about the amount of cells lived after the treatment of LDV liposomal formulation of PSI with respect to those cells (control) which are not treated with the peptide. […] The absorbance at 550 nm was measured and the % viability was calculated.
as §1
A375 cells were seeded at a density of 10000 cells per well in 96-well plate before 24 hours of treatment. Cells were treated with LDV-liposome-PSI and doxorubicin for 24 hours. MTT assay as described was performed and IC50 value was calculated using CompuSyn software.

[3] = MTT cell viability assay in WI38 normal cells; format: cell-based; conditions: human, WI38, 15.62 μg/mL, Table 5 comparison
Description: B16F10 and WI38 cells were seeded in a 96-well plate at density of 10000 cells per well before 24 h of treatment. Cells were treated with LDV liposomal PSI and normal liposomal PSI separately in complete media for 24 h. After 24 h, MTT assay was performed. […] In case of normal liposomal PSI, inventors have found similar amount of cell viability for both B16F10 and WI38 cells.
B16F10 and A375 cells were treated with the LDV liposomal formulation of PSI and cellular viability was checked using MTT assay. It is a colorimetric assay where MTT (Methyl thiazolyl diphenyl-tetrazolium bromide), a yellow tetrazole compound, is reduced to purple formazan by cellular reductase enzymes of live cells. Dead cells cannot do this type of reduction and are not able to develop the purple colour. Therefore an idea about the amount of cells lived after the treatment of LDV liposomal formulation of PSI with respect to those cells (control) which are not treated with the peptide. The live cells are called as viable cells and it is denoted as % viability in the Y-axis. On the X-axis four different concentrations of the said formulation was plotted. The absorbance at 550 nm was measured and the % viability was calculated.
% Viability=[(A550Treated Cells−A550 Backgrounds)/(A550Untreated Cells−A550 Backgrounds)]*100.

B16F10 cells [4] = test: FACS analysis for apoptosis (annexin V/PI) in B16F10 cells; format: cell-based, mouse; conditions: B16F10, 15.62 μg/mL, 48 hours
Description: Fluorescence activated cell sorting (FACS) experiment was performed for studying the type of cell death. The cell death pathway of B16F10 cells in FACS using apoptosis detection kit was studied. Cells were seeded at a density of ˜5×10^5 cells per well in a 6-well plate before 24 hours of treatment. The cells were treated with solutions of LDV liposomal formulation of PSI. After that cells were incubated for 48 hours. Cells were trypsinized and washed with PBS by help of centrifugation. Cells were incubated in dark at 37° C. for 30 minutes with a 100 μL solution of assay buffer containing 2.5 μL of Propidium iodide (PI) and 2.5 μL of annexin V. All these reagents were supplied along with the apoptosis detection kit (Santa Cruz Biotechnology). The stock concentration of Propidium iodide and annexin V was 50 μg/mL and 200 μg/mL respectively. After this another 400 μL of assay buffer was added to the cells and these total 500 μL of cell solution was analyzed by FACS. The emission of Annexin V and PI was detected in the FITC and PI channels of BD LSRFORTESA flow cytometer using emission filters at 530 and 610 nm respectively. In the represented data, cells in the Q1, Q2 and Q4 quadrants are regarded as necrotic, late apoptotic and early apoptotic cells respectively. Cells in the Q3 quadrant are regarded as normal cells or healthy cells. Data was analyzed using FACS DIVA software. […]

A375 cells [5] = test: FACS analysis for apoptosis (annexin V/PI) in A375 cells; format: cell-based, human; conditions: A375, 15.62 μg/mL
Description: Furthermore FACS analysis using apoptosis detection kit has been performed. FACS analysis, have ascertained that the LDV liposomal formulation of PSI caused apoptotic death of B16F10 and A375 cells (FIGS. 4 and 5). Inventors have performed apoptosis assay using annexin V/PI in B16F10 and A375 cell to compare the amount of apoptotic death of cancer cell due to application of 15.62 μg/mL concentration of LDV liposomal PSI and doxorubicin. Inventors have found large amount of apoptotic death of both the cancer cells (A375 and B16F10) due to LDV liposomal PSI.
Fluorescence activated cell sorting (FACS) experiment was performed for studying the type of cell death. The cell death pathway of B16F10 cells in FACS using apoptosis detection kit was studied. Cells were seeded at a density of ˜5×10^5 cells per well in a 6-well plate before 24 hours of treatment. The cells were treated with solutions of LDV liposomal formulation of PSI. After that cells were incubated for 48 hours. Cells were trypsinized and washed with PBS by help of centrifugation. […] After this another 400 μL of assay buffer was added to the cells and these total 500 μL of cell solution was analyzed by FACS. The emission of Annexin V and PI was detected in the FITC and PI channels of BD LSRFORTESA flow cytometer using emission filters at 530 and 610 nm respectively. […] Data was analyzed using FACS DIVA software. […]

With `COc1cccc2c1C(=O)c1c(O)c3c(c(O)c1C2=O)C[C@@](O)(C(=O)CO)C[C@@H]3O[C@H]1C[C@H](N)[C@H](O)[C@H](C)O1` [Doxorubicin] the viability at 15.62 µg/mL (B16F10 cells [1]) was 19.9%, the IC50 (A375 cells [2]; A375, Melanoma (human), CompuSyn software) was 10.2 µg/mL (≈ 18.7 µM) and the viability at 3.12 µg/mL (A375 cells [2]; Homo sapiens, A375, 3.12 μg/mL) was 94%. For the same compound, the viability at 6.25 µg/mL (A375 cells [2]; Homo sapiens, A375, 6.25 μg/mL) was 59.2%, the viability at 12.5 µg/mL (A375 cells [2]; Homo sapiens, A375, 12.5 μg/mL) was 31.5% and the viability at 25 µg/mL (A375 cells [2]; Homo sapiens, A375, 25 μg/mL) was 11.7%. The viability at 50 µg/mL (A375 cells [2]; Homo sapiens, A375, 50 μg/mL) was 4.9%, the viability at 100 µg/mL (A375 cells [2]; Homo sapiens, A375, 100 μg/mL) was 6.09% and the viability at 24 h, 15.62 μg/mL [3] was 65.2%. The “Amount of Apoptotic death of cancer cell (%)” value (B16F10 cells [4]) was 99.9% and the “Amount of Apoptotic death of cancer cell (%)” value (A375 cells [5]) was 100%.
